Source: US9340500B2, “Aromatic heterocyclic derivative having TRPV4-inhibiting activity” (SHIONOGI & CO., LTD., priority 2011, dated 2016)

Tests used:
[1] = target: human TRPV4 (Homo sapiens (Human), UniProt Q9HBA0); assay: Test Example 3: measurement of TRPV4 inhibitory activity (Fluo-3, FDSS 3000, 4α-PDD); format: cell-based; conditions: hTRPV4/CHO cells, calculated from IC50 and 4α-PDD EC50
Outline: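 Fluo-3-loaded CHO-K1 cells stably expressing TRPV4 in HEPES/probenecid Hanks buffer pH 7.4; compound added, then 4α-PDD, Ca2+ fluorescence (Ex 480/Em 540 nm) read 8 min. Max-Min normalized to 10 μM Ruthenium Red (100%) and vehicle; IC50 from 10-point 3-fold series converted to Ki using 4α-PDD EC50 and concentration.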

[2] = Metabolism stability test; format: in vitro ADME; conditions: human liver microsomes, 30 minutes, compound concentration 2 μmol/L
Experimental: Using a commercially available pooled human hepatic microsomes, a test compound was reacted for a constant time, a remaining rate was calculated by comparing a reacted sample and an unreacted sample, thereby, a degree of metabolism in liver was assessed.
A reaction was performed (oxidative reaction) at 37° C. for 0 minute or 30 minutes in the presence of 1 mmol/L NADPH in 0.2 mL of a buffer (50 mmol/L Tris-HCl pH 7.4, 150 mmol/L potassium chloride, 10 mmol/L magnesium chloride) containing 0.5 mg protein/mL of human liver microsomes. After the reaction, 50 μL of the reaction mixture was added to 100 μL of a methanol/acetonitrile=1/1 (v/v), mixed and centrifuged at 3000 rpm for 15 minutes. The test compound in the supernatant was quantified by LC/MS/MS, and a remaining amount of the test compound after the reaction was calculated, letting a compound amount at 0 minute reaction time to be 100%. Hydrolysis reaction was performed in the absence of NADPH and glucuronidation reaction was in the presence of 5 mM UDP-glucuronic acid in place of NADPH, followed by similar operations.

[3] = target: human ether-a-go-go related gene (hERG) channel (Homo sapiens (Human), UniProt Q12809); assay: hERG test (whole cell patch clamp, IKr); format: cell-based; conditions: 1 μmol/L of test compound, HEK293 cells expressing hERG
From the text: For the purpose of assessing risk of an electrocardiogram QT interval prolongation, effects on delayed rectifier K^+ current (IKr), which plays an important role in the ventricular repolarization process, was studied using HEK293 cells expressing human ether-a-go-go related gene (hERG) channel.
After a cell was retained at a membrane potential of −80 mV by whole cell patch clamp method using an automated patch clamp system (PatchXpress 7000A, Axon Instruments Inc.), IKr induced by depolarization pulse stimulation at +40 mV for 2 seconds and, further, repolarization pulse stimulation at −50 mV for 2 seconds was recorded. […] From the recording IKr, an absolute value of the tail peak current was measured based on the current value at the resting membrane potential using an analysis software (DataXpress ver. 1, Molecular Devices Corporation). Further, the % inhibition relative to the tail peak current before application of the test substance was calculated, and compared with the vehicle-applied group (0.1% dimethyl sulfoxide solution) to assess influence of the test substance on IKr.

Sequence of human TRPV4 (Q9HBA0 whole entry): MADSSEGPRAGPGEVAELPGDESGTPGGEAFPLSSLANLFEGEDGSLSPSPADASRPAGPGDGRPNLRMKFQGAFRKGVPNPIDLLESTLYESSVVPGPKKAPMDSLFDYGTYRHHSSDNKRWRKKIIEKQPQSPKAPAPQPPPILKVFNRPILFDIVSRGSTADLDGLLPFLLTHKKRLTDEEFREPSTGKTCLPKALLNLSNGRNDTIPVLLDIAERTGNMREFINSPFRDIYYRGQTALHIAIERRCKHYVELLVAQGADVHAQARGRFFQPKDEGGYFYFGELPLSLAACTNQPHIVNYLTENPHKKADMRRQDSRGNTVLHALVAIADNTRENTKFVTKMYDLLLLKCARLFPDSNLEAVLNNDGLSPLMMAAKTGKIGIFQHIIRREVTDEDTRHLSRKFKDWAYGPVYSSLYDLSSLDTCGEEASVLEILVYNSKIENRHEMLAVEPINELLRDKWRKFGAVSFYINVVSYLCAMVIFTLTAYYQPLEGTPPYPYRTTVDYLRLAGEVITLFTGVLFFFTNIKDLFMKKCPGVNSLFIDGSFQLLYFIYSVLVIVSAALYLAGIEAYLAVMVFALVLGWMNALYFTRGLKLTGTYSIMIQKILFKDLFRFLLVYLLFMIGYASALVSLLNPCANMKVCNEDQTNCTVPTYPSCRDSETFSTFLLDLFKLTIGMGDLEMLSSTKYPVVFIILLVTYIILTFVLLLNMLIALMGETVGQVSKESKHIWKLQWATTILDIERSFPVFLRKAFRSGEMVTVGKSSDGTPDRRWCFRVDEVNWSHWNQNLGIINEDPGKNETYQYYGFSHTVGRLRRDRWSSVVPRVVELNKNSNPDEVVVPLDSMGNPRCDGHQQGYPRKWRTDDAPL
Sequence of human ether-a-go-go related gene (hERG) channel (Q12809 whole entry): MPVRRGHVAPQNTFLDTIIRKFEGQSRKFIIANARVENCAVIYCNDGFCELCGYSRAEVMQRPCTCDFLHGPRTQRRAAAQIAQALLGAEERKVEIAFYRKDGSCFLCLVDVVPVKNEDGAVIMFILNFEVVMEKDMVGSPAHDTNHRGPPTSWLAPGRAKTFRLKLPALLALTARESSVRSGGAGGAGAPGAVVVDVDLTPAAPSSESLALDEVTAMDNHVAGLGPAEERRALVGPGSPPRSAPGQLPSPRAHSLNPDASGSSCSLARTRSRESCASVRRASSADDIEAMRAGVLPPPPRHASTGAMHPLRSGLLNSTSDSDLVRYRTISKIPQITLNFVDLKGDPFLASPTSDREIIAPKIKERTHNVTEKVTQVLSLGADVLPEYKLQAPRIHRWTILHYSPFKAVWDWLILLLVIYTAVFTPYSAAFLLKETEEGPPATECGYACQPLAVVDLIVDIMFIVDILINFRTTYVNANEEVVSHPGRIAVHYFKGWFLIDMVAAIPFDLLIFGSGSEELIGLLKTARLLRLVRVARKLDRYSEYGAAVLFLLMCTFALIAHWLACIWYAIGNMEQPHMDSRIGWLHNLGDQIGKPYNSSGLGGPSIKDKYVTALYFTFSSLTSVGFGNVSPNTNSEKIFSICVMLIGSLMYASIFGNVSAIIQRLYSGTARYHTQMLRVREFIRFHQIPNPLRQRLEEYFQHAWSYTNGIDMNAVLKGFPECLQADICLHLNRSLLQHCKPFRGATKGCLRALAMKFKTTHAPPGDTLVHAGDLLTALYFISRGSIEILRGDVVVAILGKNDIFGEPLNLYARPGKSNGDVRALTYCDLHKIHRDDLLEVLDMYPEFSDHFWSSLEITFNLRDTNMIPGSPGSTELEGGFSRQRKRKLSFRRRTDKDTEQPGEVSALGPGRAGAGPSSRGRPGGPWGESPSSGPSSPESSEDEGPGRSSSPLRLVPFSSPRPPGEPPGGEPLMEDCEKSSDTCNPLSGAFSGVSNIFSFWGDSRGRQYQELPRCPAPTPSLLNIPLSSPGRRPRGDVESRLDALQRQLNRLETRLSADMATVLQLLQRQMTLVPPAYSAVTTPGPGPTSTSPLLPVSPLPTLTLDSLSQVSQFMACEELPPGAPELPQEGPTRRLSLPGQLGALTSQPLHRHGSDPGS

Cc1c(C(=O)Nc2cccc(C(F)(F)F)c2)ccn1CCCN1CCOCC1 [Compound I-007]
Ki [1]: 1450 nM
remaining rate (metabolism stability) [2]: 85%

Cc1c(C(=O)Nc2cccc(C(F)(F)F)c2)cc(-c2ccccc2)n1CCCN(C)C [Compound I-018]
Ki [1]: 169 nM
remaining rate (metabolism stability) [2]: 70.6%

Cc1c(C(=O)Nc2cccc(C(F)(F)F)c2)cc(-c2ccccc2)n1CCCNS(C)(=O)=O [Compound I-026]
Ki [1]: 427 nM
hERG % inhibition [3]: 11.7%
